# Source: US20250177352A1, “COMBINATION TREATMENT FOR CANCER” (LAEKNA LIMITED, priority 2022, published 2025)
# Assays:
# solid tumors = conditions: literature values of approved antibodies; cited from earlier work
# mTNBC = conditions: historical control for mTNBC patients with PD-L1 negative status; cited from earlier work
# MBT-2 cells = experiment: Proliferation assay of mouse cancer cell lines (CellTiter-Lumi, ATP); type: cell-based; conditions: afuresertib 0.0001-10 μM, 3 days, FIG. 1
# Procedure: The cell lines were obtained from Cobioer Biosciences Co. Ltd., Nanjing, China. 1,000 to 2,000 cells were seeded into 96-well plate, and induced with various concentrations of afuresertib (0.0001-10 μM) for 3 days at 37° C. with 5% CO2. The number of viable cells in culture was determined based on quantitation of the amount of ATP following the manufacturer's instructions (CellTiter-Lumi Kit, Beyotime).
# Akt (protein kinase B) = conditions: reversible, ATP-competitive; stated as known; cited from earlier work
compound,measurement,setting,value
Pembrolizumab: listed among other approved anti-PD-L1 antibodies from Phase I studies,"ORR, Phase I studies in solid tumors",solid tumors,5.3%
"CC(=O)O[C@H]1C(=O)[C@@]2(C)[C@H]([C@H](OC(=O)c3ccccc3)[C@]3(O)C[C@H](OC(=O)[C@H](O)[C@@H](NC(=O)c4ccccc4)c4ccccc4)C(C)=C1C3(C)C)[C@]1(OC(C)=O)CO[C@@H]1C[C@@H]2O [paclitaxel, [(1S,2S,3R,4S,7R,9S,10S,12R,15S)-4,12-diacetyloxy-15-[(2R,3S)-3-benzamido-2-hydroxy-3-phenylpropanoyl]oxy-1,9-dihydroxy-10,14,17,17-tetramethyl-11-oxo-6-oxatetracyclo[11.3.1.0^3,10.0^4-7]heptadec-13-en-2-yl]benzoate]","ORR, paclitaxel monotherapy, LOTUS Study",mTNBC,32%
Atezolizumab: anti-PD-L1 antibody (Genentech/Roche),"ORR, Phase I studies in solid tumors",solid tumors,10%
"Cn1ncc(Cl)c1-c1cc(C(=O)N[C@H](CN)Cc2cccc(F)c2)sc1Cl [Afuresertib, N-{(1S)-2-amino-1-[(3-fluorophenyl)methyl]ethyl}-5-chloro-4-(4-chloro-1-methyl-1H-pyrazol-5-yl)-2-thiophenecarboxamide]",response of cell proliferation (cell viability),MBT-2 cells,favorable response profile
same,pan-AKT kinase inhibitor potency,Akt (protein kinase B),low-nanomolar
Avelumab: anti-PD-L1 antibody (Merck Serono and Pfizer),"ORR, Phase I studies in solid tumors",solid tumors,9%
